Measurements as given in PubChem BioAssay (NCI).
Values joined by “and” are separate entries in the source; they are usually repeats but may differ in a detail not shown here. Identical values can stand only once.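 Step 1: Grow cells in 96-well plates. Step 2: Expose to compound for 48 hours at 5 concentrations. Step 3: Interpolate endpoints linearly; if unreached, use highest concentration. GI50 marks 50% less growth. TGI marks complete inhibition of growth.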

Columns and labels:
Assay in all cases: NCI anticancer screen, dose series, 48 h
M14 melanoma = test system: M14 melanoma
MOLT-4 leukemia = test system: MOLT-4 leukemia
HCT-116 colon = test system: HCT-116 colon
COLO 205 colon = test system: COLO 205 colon
HOP-92 NSCLC = test system: HOP-92 NSCLC
SR leukemia = test system: SR leukemia
OVCAR-8 ovarian = test system: OVCAR-8 ovarian
UACC-62 melanoma = test system: UACC-62 melanoma

| Compound | GI50 (M14 melanoma) [µM] | TGI (M14 melanoma) [µM] | GI50 (MOLT-4 leukemia) [µM] | TGI (MOLT-4 leukemia) | GI50 (HCT-116 colon) [µM] | TGI (HCT-116 colon) | GI50 (COLO 205 colon) [µM] | TGI (COLO 205 colon) [µM] | GI50 (HOP-92 NSCLC) [µM] | TGI (HOP-92 NSCLC) [µM] | GI50 (SR leukemia) [µM] | TGI (SR leukemia) | GI50 (OVCAR-8 ovarian) [µM] | TGI (OVCAR-8 ovarian) [µM] | GI50 (UACC-62 melanoma) [µM] | TGI (UACC-62 melanoma) |
| --- | --- | --- | --- | --- | --- | --- | --- | --- | --- | --- | --- | --- | --- | --- | --- | --- |
| CC(=O)c1ccc2c(c1)N(CCCN1CCN(CCO)CC1)c1ccccc1S2 | 1.88 | 3.6 | 2.99 | 8.86 µM | 1.81 | 3.49 µM | 1.74 | 3.5 | 1.1 | 5.97 | 2.68 | 6.92 µM | 3.34 | 10.5 | 1.88 | 3.83 µM |
| COc1cc(C(=O)N[C@H]2CCc3cc(OC)c(OC)c(OC)c3-c3ccc(SC)c(=O)cc32)cc(OC)c1OC | – | – | 0.0133 | 25 µM and > 100 µM | – | 3.02 µM and 17 µM | – | – | – | 25 | – | 25 µM and > 100 µM | – | 0.0478 | – | 25 µM and > 100 µM |
| CN(C)N1C(=O)SCC(c2ccccc2)(c2ccccc2)C1=O | – | > 100 | – | > 100 µM | – | > 100 µM | – | > 100 | – | > 100 | – | > 100 µM | – | > 100 | – | > 100 µM |
| C=C1C(=O)O[C@H]2[C@H]1CC/C(COC(=O)NCc1ccc(Cn3c(=O)sn(CCCCC)c3=O)cc1)=C\CC[C@@]1(C)O[C@@H]21 | 1.89 | 4.76 | 0.59 | 4.06 µM | 1.73 | 3.7 µM | 1.78 | 3.33 | 1.38 | 3.01 | 0.3 | 2.18 µM | 2.26 | 5.46 | 1.59 | 3.08 µM |
| CC(/C=C/C(O)=C1/C(=O)CNC1=O)=C\[C@@H](C)[C@H]1O[C@@]2(C)O[C@H](C(=O)[C@@H]3O[C@@]32C)[C@@H]1C | – | > 100 | – | 72.2 µM | – | 39 µM | – | 43.6 | – | – | – | – | – | 46.4 | – | 33.3 µM |
| Cn1c(=O)n(C)c2cc(CNCCNc3ccnc4cc(Cl)ccc34)ccc21 | – | – | 21.1 | > 100 µM | 17.9 | 54.5 µM | 17.2 | 35.8 | 10.1 | 49.6 | 16.3 | 48.2 µM | 38.2 | > 100 | 17.7 | 35.6 µM |
| CC(C)(C)NCC(O)COc1c(Br)c(Br)c(Br)c2c1OC(C)(C)C2 (stereo not drawn) | 1.81 | 3.66 | 1.59 | 3.16 µM | – | – | 1.55 | 3.2 | 1.52 | 3.17 | 1.66 | 3.29 µM | – | – | 1.88 | 3.32 µM |
| C=CC(C)(C)n1cc(C2=C(O)C(=O)C(c3cn(C(C)(C)C=C)c4ccccc34)=C(O)C2=O)c2ccccc21 | – | 8.5 | – | > 45.8 µM | – | > 33.9 µM | – | 30 | – | 18.9 | – | > 45 µM | – | 13.6 | – | 4.33 µM |
| CCCc1nc(Cl)nc(Cl)c1Cl | – | 1.13 | – | 0.551 µM | – | 1.3 µM | – | – | – | 0.532 | – | 0.529 µM | – | 0.637 | – | 2.07 µM |
| CC(C)(C)[Si](C)(C)OC1[C@@H](CNC(N)=O)O[C@@H](n2cnc3c(NC(=O)Nc4ccccc4)ncnc32)[C@H]1O[Si](C)(C)C(C)(C)C (stereo partly drawn) | 2 | 8.11 | 1.06 | 2.24 µM | 0.78 | 1.45 µM | 1.23 | 2.7 | – | – | 0.977 | 1.99 µM | 1.77 | 7.32 | 6.19 | 12.6 µM |
| COc1ccc(C(=O)c2sc3nc(-c4ccccc4OC)ccc3c2N)cc1OC | 6.05 | > 100 | – | – | 5.55 | > 100 µM | 8.9 | > 100 | – | – | 7.3 | > 100 µM | 4.02 | > 100 | 4.89 | > 100 µM |
| CC(=O)/C=C/c1ccc(Nc2c3ccccc3nc3occ(Cl)c23)cc1 | 4.49 | 18.2 | 2.69 | 13.3 µM | 4.83 | 17.6 µM | 4.46 | 19.5 | 4.51 | 29.4 | – | – | 2.03 | 4.64 | 1.66 | 7.03 µM |
| O=[N+]([O-])c1cc([As](Br)c2ccc(O)c([N+](=O)[O-])c2)ccc1O | – | 4.33 | – | – | – | 5.54 µM | – | 3.25 | – | 2.96 | – | 0.566 µM | – | 3.21 | – | 3 µM |
| CCOC(=O)c1sc(-c2ccc(OS(=O)(=O)C[C@]34CCC(CC3=O)C4(C)C)c(C=O)c2)nc1C | 1.09 | 2.45 | 0.797 | 2.22 µM | – | – | 1.07 | 2.62 | 0.951 | 3.7 | 0.66 | 3.27 µM | 1.53 | > 50 | 0.745 | 1.76 µM |
| COc1ccc(-c2c(C#N)c(N)nc(N3CCOCC3)c2C#N)cc1 | 22.6 | 72.8 | 27.7 | > 100 µM | 17.7 | 65.2 µM | 2.13 | 26.5 | 14.3 | 87.7 | – | – | 26 | > 100 | 14.6 | 74.7 µM |
| CC(=O)c1cccc(NC(=O)C(=O)c2c(O)c3ccccc3oc2=O)c1 | – | > 100 | – | > 100 µM | – | > 100 µM | – | – | – | > 100 | – | > 100 µM | – | > 100 | – | > 100 µM |
| CO[C@H]1/C=C/O[C@@]2(C)Oc3c(C)c(O)c4c(O)c(c(/C=N/N5CCN(C)CC5)c(O)c4c3C2=O)NC(=O)/C(C)=C\C=C\[C@H](C)[C@H](O)[C@@H](C)[C@@H](O)[C@@H](C)[C@H](OC(C)=O)[C@@H]1C | – | > 100 | – | > 100 µM | – | > 100 µM | – | > 100 | – | – | – | 52.6 µM | – | > 100 | – | > 100 µM |
| O=C(NN1C(=O)CSC1c1cccc(Cl)c1)C(O)c1ccccc1 (stereo not drawn) | > 100 | > 100 | 77.8 | > 100 µM | 83.8 | > 100 µM | > 100 | > 100 | > 100 | > 100 | – | – | 83.5 | > 100 | 23.1 | > 100 µM |
| O=C(c1ccc2ccccc2c1)c1nc2cc(F)ccc2[n+]([O-])c1C(F)(F)F | 17.8 | 34 | 22.9 | 53.8 µM | 18.4 | 33.1 µM | 15.9 | 38.1 | 19.5 | 36.5 | – | – | 16.7 | 32.4 | 17 | 32.6 µM |
| Cc1cc(NCc2cc(Nc3ccnc4cc(Cl)ccc34)ccc2F)nc(N2CCOCC2)n1 | – | – | 2.95 | > 100 µM | – | – | – | – | 1.34 | 3.13 | – | – | 3.07 | 13.6 | – | – |
| CCCN(CCC)c1ccc(C=O)c(Cl)c1 | 26 | > 100 | 29.6 | 97.1 µM | 2.2 | 19 µM | 4.2 | 17 | 9.64 | 36 | – | – | 28.4 | > 100 | 0.317 | 1.81 µM |
| COc1cccc(CNc2ncnc3c2ncn3C2OC(CO)C(O)C2O)c1O (stereo not drawn) | 0.248 | > 100 | 0.353 | > 44 µM | 0.0659 | – | 0.702 | 31.1 | – | – | 0.0651 | – | 0.0679 | > 43 | 0.347 | > 31.8 µM |
| COc1ccc(Nc2nc(Nc3cc(C)[nH]n3)c3cc(OC)c(OC)cc3n2)cc1 | 1.31 | 2.89 | 0.389 | 2.58 µM | – | – | – | – | 1.29 | 2.93 | 0.386 | > 100 µM | – | – | 1.71 | 3.39 µM |
| COc1ccc(-c2cnnn2-c2nonc2-n2cccc2)cc1OC | 3.28 | > 100 | 3.63 | > 100 µM | 4.19 | > 100 µM | 3.64 | 14.8 | – | – | 1.9 | > 100 µM | 5.29 | > 100 | 5.42 | > 100 µM |
| COc1cc(OC)c2sc(-c3ccc(-n4cncc4-c4ccc(OC)c(OC)c4)cc3)nc2c1 | > 100 | > 100 | – | – | 5.48 | > 100 µM | – | – | – | – | 3.03 | > 100 µM | 21.2 | > 100 | 8.14 | > 100 µM |
| C=C1C(=O)O[C@H]2[C@H]1CC/C(Cn1cc(-c3ccc(N)cc3)nn1)=C\CC[C@@]1(C)O[C@@H]21 | 2.97 | 10.8 | 2.87 | 28.6 µM | 1.55 | 4.22 µM | 1.79 | 4.05 | 2.13 | 5.33 | 0.702 | > 100 µM | 3.04 | 12.4 | – | – |
| C=C1C(=O)OC2C1CCC(C)C1(O)C=CC(=O)C21C (stereo not drawn) | – | – | – | > 10 µM | – | > 10 µM | – | > 10 | – | > 10 | – | > 10 µM | – | > 10 | – | > 10 µM |
